Data reported in patent US8080235B2, “Protein kinase A reporters useful in high throughput assays” (The Johns Hopkins University, priority 2005, dated 2011).
Read-outs that look alike come from different tables or passages of the source.

Columns and labels:
PKA activity [1] = assay: AKAR3 live cell 96-well plate reader assay (yellow/cyan emission ratio); assay type: cell-based; details: for increase in yellow-to-cyan emission ratio of AKAR3: HEK-203 (sic) cells expressing AKAR3, 96-well plate, n=3
Procedure: (§1) Live Cell Plate Reading. HEK-293 cells were transfected with AKAR3 or ICUE3 using calcium phosphate at 40% confluency and grown for 40 hours. Cells were then trypsinized and plated in a Costar 3603 96-well plate (Corning) at a density of 150,000 cells per well. After incubation for another 24 hours, cells were washed once with HBSS and left in 150 μl of HBSS at 20-25° C. Fluorescence reading was taken on a FLUOstar OPTIMA fluorescence microplate reader (BMG Labtechnologies Inc.) using a 420DF20 excitation filter and two emission filters (470DF40 for cyan and 535DF25 for yellow). A baseline was established in three cycles, each consisting of a full plate reading of yellow intensity, followed by a reading of cyan intensity.
(§2) Each cycle lasted between 64 and 92 seconds. Cells were then treated with ISO, Fsk, H89, Propranolol (Pro; Sigma), or 3-isobutyl-1-methylxanthine (IBMX; Sigma) as indicated. Readings were taken in additional cycles. FRET change was calculated as the percent increase of emission ratios (yellow-to-cyan for AKAR and cyan-to-yellow for ICUE) over baseline for each well during a given cycle. Several parameters were calculated to assess the efficiency of the assay, including Z′ factor, coefficient of variation, and signal to noise (S/N) ratio (22).
AKAR2 (FIG. 4). This reporter, AKAR3 (FIG. 1b), was tested in a 96-well plate format. […] As negative controls, addition of buffer of 2% DMSO generated minimal changes in emission ratios. This 96-well plate assay was sensitive and reproducible, with a signal to noise ratio of 30.3, a Z′ factor of 0.84, and a coefficient of variation (CV) of 1.8% for the Fsk-stimulated response.
To provide specific readout of compartmentalized PKA activities, we introduced a C-terminal nuclear export signal (NES) to AKAR3 . In the plate reader assay using AKAR3 -NES (FIG. 1d), cytosolic PKA activity was recorded without contamination of nuclear activity, which has slower kinetics due to diffusional translocation of the catalytic subunit from cytosol to nucleus. […] Thus, sensor targeting provides increased temporal and spatial resolution and can be used to reveal how individual signaling microdomains, such as kinase-containing signaling complexes, are affected by drugs or other perturbations, adding another level of capacity to the non-image-based high-throughput assays of the invention.

PKA activity [2] = assay: AKAR single-cell live imaging in HEK-293 cells; assay type: cell-based; details: for AKAR3 response in single cell imaging: HEK-293, 10 μM epinephrine, 50 μM ritodrine, IBMX alone
Procedure: Cell Culture and Imaging. HEK-293 cells were plated onto sterilized glass coverslips in 35 mm dishes and grown to ˜50% confluency in DMEM (10% FBS at 37° C. with 5% CO2). Cells were transfected with calcium phosphate and grown for 12-24 hours before imaging. After washing once with Hanks' balanced salt solution (HBSS), cells were maintained in buffer in the dark at 20-25° C. Isoproterenol (ISO; Sigma), forskolin (Fsk; Calbiochem), H89 (Sigma) were added as indicated. Cells were imaged on a Zeiss Axiovert 200M microscope with a 40×/1.3NA oil-immersion objective lens and cooled CCD camera as described in (21). Briefly, dual emission ratio imaging used a 420DF20 excitation filter, a 450DRLP dichroic mirror, and two emission filters (475DF40 for cyan and 535DF25 for yellow). The ratios of yellow-to-cyan (for AKAR) or cyan-to-yellow (for ICUE) emissions were then calculated at different time points and normalized by dividing all ratios by the emission ratio before stimulation, setting basal emission ratio as 1.
One of the important advantages of genetically encoded reporters of the invention is that they can be targeted to subcellular locations via various targeting motifs. However, in some cases, subcellular targeting may sacrifice the response amplitude of a reporter. To determine whether the improved dynamic range of AKAR3 leads to sensitive detection of subcellular PKA activities, AKAR3 was targeted to two cellular compartments.

cAMP [3] = assay: ICUE3 live cell high-throughput cAMP plate reader assay (cyan/yellow emission ratio); assay type: cell-based
Procedure: as §1, §2
To follow the activity of the signaling pathway and to assay related drug targets in parallel, we developed a live cell-based high-throughput assay for cAMP, a second messenger that is generated via activation of Gs-coupled GPCRs and exerts its effects by activating PKA and other effectors. Similar improvement approaches were first applied to create a reporter that more than doubled the response of previous “Indicator for cAMP Using Epac” (ICUE), which generates a decrease in FRET upon binding of cAMP (FIG. 5). […] Possible sources of the variation and reduced signal are transfection efficiency and expression variability.

PKA activity [4] = assay: AKAR3 high-throughput screening of Johns Hopkins Clinical Compound Library; assay type: cell-based; details: for agonist screen: AKAR response to compound alone: 10 μM, hit = larger than 6 times the standard deviation above negative control
Procedure: Live Cell High-Throughput Screening. […] After incubation for 24 hours, cells were washed once with HBSS and left in 190 μl of HBSS at 20-25° C. Fluorescence readings were taken as described above, with each cycle lasting 90 seconds. Following baseline acquisition, cells in each experimental well were treated with a compound from the Johns Hopkins Clinical Compound Library to a final concentration of 10 μM. Control cells were treated with 10 μL of 10% fetal bovine serum (FBS) in a solution of phosphate buffered saline (PBS) at pH 7.4, which is the solution used to dissolve library compounds.
Ten final cycles were then performed.
FRET responses were calculated as described above. […] Agonist hits were defined as compounds eliciting responses larger than six times the standard deviation above the baseline. Antagonist hits were defined as compounds which decreased the ISO stimulated response by 50% or by six times the standard deviation.
In a primary screening, 160 compounds from the Johns Hopkins Clinical Compound Library were added to AKAR3-expressing HEK-293 cells in individual wells of 96-well plates to a final concentration of 10 μM after a base line reading. Time courses were recorded to monitor any fluorescence changes upon drug addition and to identify hits which activate PKA as potential agonists.
Potential agonists were identified by selecting compounds which stimulated emission ratio changes larger than 6 times the standard deviation above the negative control (FIG. 3a ).

cAMP [5] = assay: ICUE single cell imaging, ISO stimulation in the presence of IBMX; assay type: cell-based; details: FIG. 3e, read-out: inhibition of ISO-stimulated ICUE response
Procedure: FIG. 3. High-throughput screening. FIG. 3A, normalized emission ratio (yellow/cyan) from cells expressing AKAR3 treated with individual library compounds, compared to the negative control in which only buffer was added and the positive control in which ISO (250 nM) was added (agonist screen). Individual bars along the X axis represent individual library compounds. The asterisks indicate responses of ritrodrine, ISO, and epinephrine. FIG. 3B, normalized emission ratio (yellow/cyan) from cells expressing AKAR3 first treated with individual library compounds for about 15 minutes, then stimulated by ISO (250 nM) (antagonist screen). The positive control in which only ISO was added and the negative control in which only buffer was added are shown as labeled. Individual bars along the X axis represent individual library compounds. The asterisks indicate responses from epinephrine and propranolol treated cells in response to ISO. FIG. 3C, representative time courses of emission ratio (yellow/cyan) change of cells expressing AKAR3 treated with 10 μM epinephrine followed by 50 μM FSK in single-cell imaging experiments. […]
Cell Culture and Imaging. […] The ratios of yellow-to-cyan (for AKAR) or cyan-to-yellow (for ICUE) emissions were then calculated at different time points and normalized by dividing all ratios by the emission ratio before stimulation, setting basal emission ratio as 1. […]

catalytic subunit of PKA = catalytic subunit of PKA (Homo sapiens, UniProt P17612); assay: In vitro kinase assay with purified AKAR3 protein; assay type: biochemical; details: n=2
Procedure: FIG. 7. Further characterization of AKAR3. Representative time courses of plasma membrane-targeted AKAR3 (FIG. 7a ) and nuclear-targeted AKAR3 (FIG. 7b ) in HEK-293 cells stimulated with 1 μM ISO and 50 μM FSK, respectively. FIG. 7c , AKAR3-expressing HEK-293 cells were treated with 200 nM phorbol dibutyrate (PDBu), a protein kinase C activator, followed by the addition of 1 μM isoproterenol, then 50 μM forskolin. FIG. 7d , representative time courses of the emission ratio change of AKAR3 in the presence (closed squares) and absence (open circles) of the specific PKA inhibitor, PKI. FIG. 7e , emission spectra of the purified AKAR3 before (squares) and after (diamonds) phosphorylation by PKA (excitation 434 nm). The curve using triangle symbols depicts the spectrum of the reporter after digestion with trypsin to quench the energy transfer and quantify the FRET. FIG. 7f , a representative phosphorylation time course for purified AKAR3 protein in the presence of PKA catalytic subunit and 1 mM ATP.
Lastly, in vitro kinase assays were carried out using purified AKAR3 protein from mammalian cell lysates.

`C=C[C@@]1(C)CC(=O)[C@]2(O)[C@@]3(C)[C@@H](O)CCC(C)(C)[C@@H]3[C@H](O)[C@H](OC(C)=O)[C@@]2(C)O1` [Fsk, forskolin] was tested, and the “increase in yellow-to-cyan emission ratio of AKAR3” value (PKA activity [1]) was 25.7%±0.7%, the “average nuclear response of nuclear-targeted AKAR3” value (PKA activity [2]; HEK-293, 50 μM FSK, n=3, slower kinetics, FIG. 7b) was 38.6%±8.45% and the Emax (cAMP [3]; stable cell line, read-out: maximum response of ICUE assay) was 43.3%. It also gave an Emax (cAMP [3]; transient transfection, Fsk in the presence of 100 μM IBMX, FIG. 2c, read-out: maximum response of ICUE3) of 24.1%.
With `CC(NCCc1ccc(O)cc1)C(O)c1ccc(O)cc1` (stereo not shown) [ritodrine] the “AKAR3 response in single cell imaging” value (PKA activity [2]) was “moderate and gradual response” and the “agonist screen: AKAR response to compound alone” value (“agonist screen: AKAR response” for short) (PKA activity [4]) was “stimulated AKAR responses on their own”.
With `CC(C)Cn1c(=O)n(C)c(=O)c2[nH]cnc21` [IBMX, 3-isobutyl-1-methylxanthine] the “effect of supplementing on AKAR3 responses” value (PKA activity [1]; FIG. 2) was “sustained responses and increased their amplitude”, the “effect on ritodrine-stimulated AKAR3 response” value (PKA activity [2]; 100 μM IBMX after 50 μM ritodrine, FIG. 3d) was “enhanced” and the “AKAR3 response in single cell imaging” value (PKA activity [2]) was “did not generate any AKAR responses”. For the same molecule, the “effect of supplementing on ICUE3 responses” value (cAMP [3]; FIG. 2) was “sustained responses and increased their amplitude”.
For `O=S(=O)(NCCNC/C=C/c1ccc(Br)cc1)c1cccc2cnccc12` [H89], the “effect on Fsk-stimulated AKAR3 response” value (PKA activity [1]; FIG. 2d) was “diminished”, the “effect on AKAR3 response (PKA specificity)” value (PKA activity [2]; PKI co-expression or H89 pretreatment) was “abolished” and the “effect on Fsk-stimulated ICUE3 response” value (cAMP [3]; FIG. 2c) was “increased the ICUE3 response”.
In the case of `C=CC1=C(C)/C(=C/c2[nH]c(Cc3[nH]c(/C=C4\NC(=O)C(C)=C4C=C)c(C)c3CCC(=O)O)c(CCC(=O)O)c2C)NC1=O` [bilirubin], the inhibition at 1 µM (cAMP [5]; 1 μM bilirubin) is reported as 40% and the inhibition at 10 µM (cAMP [5]; 10 μM bilirubin) is reported as > 60%.
With `CC(C)NCC(O)c1ccc(O)c(O)c1` (stereo not shown) [ISO, isoproterenol] the “emission ratio change with AKAR3-NES compared to the AKAR3 assay” value (PKA activity [1]; AKAR3-NES, plate reader, FIG. 1d) was “larger increase in emission ratio followed by a more rapid decrease”, the “increase in yellow-to-cyan emission ratio of AKAR3” value (PKA activity [1]) was 22.1%±0.7% and the “average response of plasma membrane-targeted AKAR3” value (PKA activity [2]; HEK-293, 1 μM ISO, n=3, FIG. 7a) was 34.3%±5.4%. The “maximum response (emission ratio elevation) of AKAR3.2” value (PKA activity [2]; HEK-293 cells expressing AKAR3.2, 1 μM ISO, FIG. 6) was “approximately 65%” and the “agonist screen: AKAR response” value (PKA activity [4]) was “stimulated AKAR responses on their own”.
With “AKAR3.2: PKA reporter fusion protein SEQ ID NO:4: cerulean fluorescent protein, FHA1, SEQ ID NO:3, circularly permuted YFP variant” the “dynamic range of the reporter” value (PKA activity [2]) was 55-65%.
For `CNC[C@H](O)c1ccc(O)c(O)c1` [epinephrine], the “AKAR3 response in single cell imaging” value (PKA activity [2]) was “stimulates cAMP production and PKA activation”, the “antagonist screen: effect on ISO-stimulated AKAR response” value (PKA activity [4]; 10 μM compound about 15 min, then 0.25 μM ISO) was “decreased the cell response to subsequent stimulation by ISO” and the “agonist screen: AKAR response” value (PKA activity [4]) was “stimulated AKAR responses on their own”.
With “AKAR3: PKA reporter fusion protein SEQ ID NO:1: ECFP 1-227, FHA1, PKA substrate linker SEQ ID NO:3, circularly permuted Venus” the “increase in emission ratio (yellow over cyan) of the reporter” value (PKA activity [2]) was “about 40%”, the “emission ratio increase after addition of ATP” value (catalytic subunit of PKA; purified AKAR3, PKA catalytic subunit, 1 mM ATP, approximately 40 minutes) was 29.1%±1.11% and the “FRET efficiency after phosphorylation” value (catalytic subunit of PKA; quantified using trypsin) was 47.2%±7.67%. For the same molecule, the “FRET efficiency before phosphorylation” value (catalytic subunit of PKA; quantified using trypsin) was 38.8%±7.36%.
